Test results from US10493029B2, “Ziyuglycoside II polymer micelle and preparative methods thereof” (SICHUAN INLU WEITE PHARMACEUTICAL TECHNOLOGY CO., LTD., priority 2016, dated 2019).

System: bone marrow suppression induced by cyclophosphamide in KM-mice
Assay: Pharmacodynamic experiment: cyclophosphamide-induced bone marrow suppression, peripheral blood counts
Assay type: in vivo
Experimental: 1. Experimental Materials, Reagents, Apparatus
Test drugs were ziyuglycoside II micelles and ziyuglycoside II powder.
Tool drug was cyclophosphamide.
Laboratory animals were KM-mice: 18.5-22.5 g.
Laboratory apparatus: Automatic blood counting analyzer; BS-600L electronic balance: specification: 600 g/0.1 g, Shanghai Yousheng Weighing Apparatus Co. Ltd.
Statistical analysis was performed using SPSS 17.0 software. Data were expressed as mean±standard error (x±S), and one-factor analysis of variance was used among groups. For homogeneity of variance, data between groups were compared by LSD test, while for heterogeneity of variance, data between groups were compared by Tamhane's T2 test.
After all animals were adaptively fed for one week, according to the body weight, animals were randomly divided as blank group; model group; ziyuglycoside II micelle sample groups 1-4 (respectively using micelles prepared in examples 1-4), with a dosage of 2.5 mg·kg^−1, preparation before use; ziyuglycoside II group: powder of ziyuglycoside II raw materials, dissolved in 10% DMSO-normal saline, with a dosage of 2.5 mg·kg^−1, preparation before use. On the first day of experiment, except for blank group, mice in other groups received cyclophosphamide normal saline solution at a dose of 120 mg·kg^−1 by peritoneal injection, and mice in blank group received the same volume of normal saline by peritoneal injection.
From the first day of experiment, each experimental group was given the corresponding drug as the predetermined dosage and administration mode, and mice in blank group and model group were given a same volume of normal saline by injection into the tail vein, for successive 6 days.
On the seventh day of experiment, whole blood was collected from orbit of mice in each experimental group, and placed in 0.5 ml EP tubes containing EDTA anticoagulant agent for test.
White blood cells (WBC), neutrophilic granulocytes (NEUT), red blood cells (RBC), platelets (PLT), and hemoglobin (HGB) in peripheral blood of mice in each experimental group were counted using automatic blood counting instrument.

[1] = cyclophosphamide 120 mg/kg i.p. day 1, drug 2.5 mg/kg for 6 days, blood on day 7, mean±standard error

In the case of `C[C@@H]1CC[C@]2(C(=O)O)CC[C@]3(C)C(=CC[C@@H]4[C@@]5(C)CC[C@H](O[C@@H]6OC[C@H](O)[C@H](O)[C@H]6O)C(C)(C)[C@@H]5CC[C@]43C)[C@@H]2[C@]1(C)O` [Ziyuglycoside II, 3-O-α-L-arabinosyl-19α-hydroxyurs-12-en-28-oic acid], the “numbers of NEUT and HGB in peripheral blood compared with model group” value (2.5 mg/kg, P<0.05) is reported as “did not show significant difference”, the “numbers of WBC, RBC, and PLT in peripheral blood compared with model group” value (2.5 mg/kg, P<0.05) is reported as “did not show significant difference” and the “HGB in peripheral blood” value [1] is reported as 44.65 ± 7.27 g/L. For the same compound, the “NEUT in peripheral blood” value [1] was 2.47 ± 0.55 ×10^9, the “PLT in peripheral blood” value [1] was 221.18 ± 6.15 ^ ×10^9 and the “RBC in peripheral blood” value [1] was 3.54 ± 0.11 ×10^12. The “WBC in peripheral blood” value [1] was 3.71 ± 0.13 ×10^9.
